From US20100029784A1, “NAPHTHOQUINONE COMPOSITIONS WITH ANTI-AGING, ANTI-INFLAMMATORY AND SKIN EVEN-TONING PROPERTIES” (priority 2008, published 2010)

System: MelanoDerm in vitro skin model (MEL-300B melanoderms)
Assay: In vitro skin model test (MelanoDerm, MatTek), skin-lightening effect by digital image quantification
Assay type: cell-based
Settings: for lightening / pixel density (untreated set at 1.00): 14 days, MEL-300B
Protocol: The skin-lightening effect was validated on the in vitro skin model, the MelanoDerm™ carried out by MatTek using MEL-300B melanoderms. This model is very similar in structure and function to the natural skin and has the cell types relevant in the epidermis including the melanocytes, which are responsible for the synthesis of the main pigment melanin. Further information can be found, for example, in http://www.mattek.com/pages/in_vitro_basics. The study was carried out over a period of 14 days at two concentrations of 2,3-dimethylnaphthalene-1,4-dione, 10 μM and 60 μM. 1% Kojic acid was the positive standard and untreated as negative control.
Digital image quantification was achieved by subtracting a standard background value from the pixel content of regions of identical size. The pixel content of untreated cells was set at 1.00. Treatment with topical 1% kojic acid as a positive control gave pixel density of 0.96, or 4% lightening. Treatment with 2,3-dimethylnaphthalene-1,4-dione gave pixel density of 0.66 or 34% lightening at a concentration of 10 μM and 0.38 or 62% lightening at a concentration of 60 μM.

[1] = topical 1% kojic acid, positive control

| SMILES | effectiveness relative to the kojic acid positive standard (concentration of 10 μM vs 1% kojic acid) | lightening (concentration of 10 μM) | pixel density (untreated set at 1.00) (concentration of 10 μM) | effectiveness relative to the kojic acid positive standard (concentration of 60 μM vs 1% kojic acid) | lightening (concentration of 60 μM) | pixel density (untreated set at 1.00) (concentration of 60 μM) | lightening [1] | pixel density (untreated set at 1.00) [1] |
| --- | --- | --- | --- | --- | --- | --- | --- | --- |
| CC1=C(C)C(=O)c2ccccc2C1=O [2,3-dimethylnaphthalene-1,4-dione] | about ten times as effective | 34% | 0.66 | about fifteen times as effective | 62% | 0.38 | – | – |
| O=c1cc(CO)occ1O [kojic acid, Kojic acid, reference compound] | – | – | – | – | – | – | 4% | 0.96 |
